The record followed here is US20170121344A1 (Siga Technologies, Inc., priority 2009, published 2017).

SMILES strings stand for the structures. Read-outs that look alike come from different tables or passages of the source.

Experiment [1] has as its system Dengue-2 (Strain New Guinea C). Kind of experiment: Viral yield assay against Dengue-2 in Vero cells. The class given is cell-based, Dengue virus. Conditions: Dengue virus, read-out: Activity (EC50 in μM) DENV-2. Put shortly: (§1)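 Virus yield, titered on Vero cells from cultures harvested at 48 h post infection, gave the EC50. Cultures were infected at MOI 0.1 with dengue-2 and treated with compound or DMSO at 37° C. DENV-1 and DENV-4 were determined similarly.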

Experiment [2] deals with DENV-4. As to the kind of experiment: Viral yield assay against DENV-4 in Vero cells. The experiment is classed as cell-based. The settings on record: Dengue virus, DENV4, viral yield assay. A digest of the protocol:
as §1

In experiment [3] the test system is DENV-3. As to the kind of experiment: Viral yield assay against DENV-3 in Vero cells. Conditions: Dengue virus, DENV3, viral yield assay. The class given is cell-based. Put shortly:
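Vero cells were infected with dengue virus at an MOI of 0.1, treated with compound or DMSO vehicle, and kept at 37° C. Supernatant virus was harvested 48 hours post infection and titered on Vero cells, with EC50 derived from yield reduction.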

The subject of experiment [4] is DENV-1. As to the kind of experiment: Viral yield assay against DENV-1 in Vero cells. The class given is cell-based. The settings on record: Dengue virus, DENV1, viral yield assay. Put shortly: as §1
Setting [5] is: DENV2, viral yield assay, Vero cells, MOI 0.1, 48 hours post infection.

A word on the EC50: it is the midpoint of the concentration-response curve. For the molecule `Nc1c(C(=O)Nc2cccc(F)c2)sc2nc(-c3cccs3)ccc12` [Compound 464, 3-amino-N-(3-fluorophenyl)-6-(2-thienyl)thieno[2,3-b]pyridine-2-carboxamide], the EC50 in experiment [1] (setting [5]), in experiment [2], in experiment [3] and in experiment [4] was under 5 µM throughout.
On to `Nc1c(C(=O)Nc2ccc(C(F)(F)F)cc2)sc2nc(-c3ccncc3)ccc12` [Compound 465, 3-amino-6-(4-pyridyl)-N-[4-(trifluoromethyl)phenyl]thieno[2,3-b] pyridine-2-carboxamide], for which the EC50 in experiment [1] (setting [5]), in experiment [2], in experiment [3] and in experiment [4] was under 5 µM throughout.
In the case of `COc1ccc(-c2ccc3c(N)c(C(=O)Nc4ccccc4Br)sc3n2)cc1` [Compound 468, 3-amino-N-(2-bromophenyl)-6-(4-methoxyphenyl)thieno[2,3-b]pyridine-2-carboxamide], the concentration for a half-maximal effect (EC50) in experiment [1] (setting [5]), in experiment [2], in experiment [3] and in experiment [4] was under 5 µM in each case.
As for `COc1ccc(-c2ccc3c(N)c(C(=O)Nc4ccc(Br)cc4)sc3n2)cc1` [Compound 469, 3-amino-N-(4-bromophenyl)-6-(4-methoxyphenyl)thieno[2,3-b]pyridine-2-carboxamide], the concentration giving a half-maximal response (EC50) in experiment [1] (setting [5]), in experiment [2], in experiment [3] and in experiment [4] was under 5 µM throughout.
As for `Nc1c(C(=O)Nc2cc(F)ccc2F)sc2nc(-c3cccs3)ccc12` [Compound 470, 3-amino-N-(2,5-difluorophenyl)-6-(2-thienyl)thieno[2,3-b]pyridine-2-carboxamide], the EC50 is under 5 µM in experiment [1] (DENV2, Vero, 48 h); under 5 µM in experiment [2]; under 5 µM in experiment [3]; under 5 µM in experiment [4].
In the case of `Nc1c(C(=O)Nc2ccc(F)cc2F)sc2nc(-c3cccs3)ccc12` [Compound 471, 3-amino-N-(2,4-difluorophenyl)-6-(2-thienyl)thieno[2,3-b]pyridine-2-carboxamide], the EC50 in experiment [1] (setting [5]), in experiment [2], in experiment [3] and in experiment [4] was under 5 µM throughout.
As to `COc1ccc(-c2ccc3c(N)c(C(=O)Nc4cccc(C(F)(F)F)c4)sc3n2)cc1` [Compound 472, 3-amino-6-(4-methoxyphenyl)-N-[3-(trifluoromethyl)phenyl]thieno[2,3-b] pyridine-2-carboxamide], the EC50 in experiment [1] (setting [5]), in experiment [2], in experiment [3] and in experiment [4] was under 5 µM each time.
Consider `COc1cc(NC(=O)c2sc3nc(-c4cccs4)ccc3c2N)cc(OC)c1OC` [Compound 473, 3-amino-6-(2-thienyl)-N-(3,4,5-trimethoxyphenyl)thieno[2,3-b]pyridine-2-carboxamide], for which the EC50 in experiment [1] (DENV2, Vero, 48 h) was under 5 µM; in experiment [2] it was under 5 µM; in experiment [3], under 5 µM; in experiment [4], under 5 µM.
Take `COc1ccc(-c2ccc3c(N)c(C(=O)Nc4ccc(C(F)(F)F)cc4)sc3n2)cc1OC` [Compound 475, 3-amino-6-(3,4-dimethoxyphenyl)-N-[4-(trifluoromethyl)phenyl]thieno[2,3-b] pyridine-2-carboxamide]: the EC50 in experiment [1] (setting [5]), in experiment [2], in experiment [3] and in experiment [4] was under 5 µM throughout.
As to `COc1ccc(-c2ccc3c(N)c(C(=O)Nc4cccc(C(F)(F)F)c4)sc3n2)cc1OC` [Compound 476, 3-amino-6-(3,4-dimethoxyphenyl)-N-[3-(trifluoromethyl)phenyl]thieno[2,3-b] pyridine-2-carboxamide], the EC50 in experiment [1] (setting [5]), in experiment [2], in experiment [3] and in experiment [4] was under 5 µM throughout.
For the molecule `COC(OC)c1ccc2c(N)c(C(=O)Nc3ccc(C(F)(F)F)cc3)sc2n1` [Compound 482, 3-amino-6-(dimethoxymethyl)-N-[4-(trifluoromethyl)phenyl]thieno[2,3-b] pyridine-2-carboxamide], the EC50 in experiment [1] (setting [5]), in experiment [2], in experiment [3] and in experiment [4] was under 5 µM throughout.
In the case of `CC(=O)c1ccc2c(N)c(C(=O)Nc3ccc(C(F)(F)F)cc3)sc2n1` [Compound 483, 6-acetyl-3-amino-N-[4-(trifluoromethyl)phenyl]thieno[2,3-b] pyridine-2-carboxamide], the EC50 in experiment [1] (setting [5]), in experiment [2], in experiment [3] and in experiment [4] was under 5 µM in each case.
`Cc1ccc(-c2ccc3c(N)c(C(=O)Nc4ccc(Br)cc4)sc3n2)cc1` [Compound 485, 3-amino-N-(4-bromophenyl)-6-(p-tolyl) thieno[2,3-b]pyridine-2-carboxamide]: the EC50 in experiment [1] (setting [5]), in experiment [2], in experiment [3] and in experiment [4] was under 5 µM each time.
For `Nc1c(C(=O)/N=c2\[nH]c3ccccc3s2)sc2nc(-c3cccs3)ccc12` [Compound 486, (NE)-3-amino-N-(3H-1,3-benzo-thiazol-2-ylidene)-6-(2-thienyl)thieno [2,3-b]pyridine-2-carboxamide], the EC50 was under 5 µM in experiment [1] (DENV2, Vero, 48 h); under 5 µM in experiment [2]; under 5 µM in experiment [3]; under 5 µM in experiment [4].
Regarding `Nc1c(C(=O)Nc2nnc(-c3ccccc3)s2)sc2nc(-c3cccs3)ccc12` [Compound 488, 3-amino-N-(5-phenyl-1,3,4-thiadiazol-2-yl)-6-(2-thienyl)thieno[2,3-b]pyridine-2-carboxamide], the EC50 in experiment [1] (setting [5]), in experiment [2], in experiment [3] and in experiment [4] was under 5 µM throughout.
`Nc1c(C(=O)Nc2cccc(F)c2)sc2nc(-c3ccc(F)cc3)ccc12` [Compound 489, 3-amino-N-(3-fluroophenyl)-6-(4-fluroophenyl)thieno[2,3-b]pyridine-2-carboxamide]: the EC50 in experiment [1] (setting [5]), in experiment [2], in experiment [3] and in experiment [4] was under 5 µM throughout.
`Nc1c(C(=O)Nc2ccc(F)cc2)sc2nc(-c3ccc(F)cc3)ccc12` [Compound 490, 3-amino-N,6-bis(4-fluorophenyl) thieno[2,3-b]pyridine-2-carboxamide]: the EC50 in experiment [1] (setting [5]) was under 5 µM; in experiment [2], under 5 µM; in experiment [3], 5 to 25 µM; in experiment [4], under 5 µM.
Turning to `COc1ccc(-c2ccc3c(N)c(C(=O)Nc4ccc(F)cc4)sc3n2)cc1` [Compound 491, 3-amino-N-(4-fluorophenyl)-6-(4-methoxyphenyl)thieno[2,3-b]pyridine-2-carboxamide], the EC50 in experiment [1] (DENV2, Vero, 48 h) was under 5 µM; in experiment [2], under 5 µM; in experiment [3], 5 to 25 µM; in experiment [4] it was over 25 µM.
Take `COc1ccc(-c2ccc3c(N)c(C(=O)Nc4ccc(C(F)(F)F)cc4)sc3n2)cc1` [Compound 492, 3-amino-6-(4-methoxyphenyl)-N-[4-(trifluoromethyl)phenyl]thieno[2,3-b] pyridine-2-carboxamide]: the EC50 in experiment [1] (setting [5]), in experiment [2], in experiment [3] and in experiment [4] was under 5 µM each time.
`COc1ccc(-c2ccc3c(N)c(C(=O)Nc4ccc(Cl)cc4)sc3n2)cc1` [Compound 493, 3-amino-N-(4-chlorophenyl)-6-(4-methoxyphenyl)thieno[2,3-b]pyridine-2-carboxamide]: the EC50 in experiment [1] (setting [5]), in experiment [2], in experiment [3] and in experiment [4] was under 5 µM in each case.
`COc1ccc(-c2ccc3c(N)c(C(=O)Nc4ccc(C(C)=O)cc4)sc3n2)cc1` [Compound 494, N-(4-acetylphenyl)-3-amino-6-(4-methoxyphenyl)thieno[2,3-b]pyridine-2-carboxamide]: the EC50 in experiment [1] (DENV2, Vero, 48 h) is under 5 µM; in experiment [2] it was under 5 µM; in experiment [3], 5 to 25 µM; in experiment [4], under 5 µM.
For the molecule `COc1cccc(-c2ccc3c(N)c(C(=O)Nc4cc(Cl)ccc4Cl)sc3n2)c1` [Compound 495, 3-amino-N-(2,5-dichlorophenyl)-6-(3-methoxyphenyl)thieno[2,3-b]pyridine-2-carboxamide], the EC50 in experiment [1] (setting [5]), in experiment [2], in experiment [3] and in experiment [4] was under 5 µM throughout.
`Cc1cc(Br)ccc1NC(=O)c1sc2nc(-c3ccc4c(c3)OCO4)ccc2c1N` [Compound 497, 3-amino-6-(1,3-benzodioxol-5-yl)-N-(4-bromo-2-methyl-phenyl)thieno[2,3-b] pyridine-2-carboxamide]: the EC50 in experiment [1] (setting [5]), in experiment [2], in experiment [3] and in experiment [4] was under 5 µM in each case.
In the case of `COc1cccc(-c2ccc3c(N)c(C(=O)Nc4ccc(Cl)c(C(F)(F)F)c4)sc3n2)c1` [Compound 498, 3-amino-N-[4-chloro-3-(trifluoromethyl)phenyl]-6-(3-methoxyphenyl)thieno [2,3-b]pyridine-2-carboxamide], the EC50 in experiment [1] (setting [5]), in experiment [2], in experiment [3] and in experiment [4] was under 5 µM each time.
Consider `COc1ccc(NC(=O)c2sc3nc(-c4cccc(OC)c4)ccc3c2N)cc1` [Compound 506, 3-amino-6-(3-methoxyphenyl)-N-(4-methoxyphenyl)thieno[2,3-b]pyridine-2-carboxamide], for which the EC50 in experiment [1] (setting [5]), in experiment [2], in experiment [3] and in experiment [4] was under 5 µM throughout.
